The source made the active and inactive calls.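 The calls were made as follows: active = compounds whose fitted half-maximal concentration in the cell-protection dose series is at or below a set limit; inactive = the rest.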
system: H9c2 cardiomyocytes, 2-deoxyglucose stress, ATP luminescence, 2 h; assay: protection of cardiomyocytes from 2-deoxyglucose injury, dose response, cell-based, 2-deoxyglucose stress, uHTS hits (AID 588780)

SMILES | IC50
COc1cc(-c2cc(NC=O)c3ncc(-c4ccc(C(C)=O)cc4)n3c2)cc(OC)c1OC | > 79 µM (inactive)
CCOC(=O)c1ccccc1NC(=O)c1ccc2c(=O)n3c(nc2c1)CCCCC3 | > 79 µM (inactive)
CCOC(=O)CSc1nc2sc(C)c(C)c2c(=O)[nH]1 | > 79 µM (inactive)
COc1ccc(/C=N/NC(=O)c2sccc2OCc2ccc(F)cc2)cc1OC | 15.4 µM
COc1cccc(C(=O)Nc2cccc(-c3nnc(-c4ccco4)o3)c2)c1 | > 79 µM (inactive)
O=S(=O)(c1cccc(F)c1)N1CCN(c2nc(-c3cccnc3)nc3ccccc23)CC1 | 16.1 µM
COC(=O)c1[nH]c2ccccc2c1NC(=O)CNC1CCCCC1 | > 79 µM (inactive)
COc1ccc(C(=O)Nc2nc(-c3ccccn3)cs2)cc1S(=O)(=O)N1CCOCC1 | 16.1 µM
CCn1nc(C(=O)NNC(=O)c2cc(Cl)ccc2OC)c2ccccc2c1=O | 74 µM (inactive)
O=C(CCc1nc2ccccc2c(=O)[nH]1)Nc1ccc(N2CCCCC2)cc1 | 19.8 µM
Cc1sc2nc(CSCC(=O)N(CCC#N)c3ccccc3F)[nH]c(=O)c2c1C | 27.9 µM
O=C(OCc1cc(=O)n2ccsc2n1)c1ccc(O)cc1O | > 79 µM (inactive)
O=C(Nc1nc(-c2ccc(S(=O)(=O)N3CCCC3)cc2)cs1)C1COc2ccccc2O1 (stereo not drawn) | > 79 µM (inactive)
COc1cc(OC)c2ccc(=O)oc2c1C(CC(=O)N1CCN(c2ccccc2)CC1)c1ccc2c(c1)OCO2 (stereo not drawn) | > 79 µM (inactive)
Cc1ccc(C(C(=O)NCc2ccccc2)N(Cc2cccs2)C(=O)c2ccc3c(c2)OCCO3)cc1 (stereo not drawn) | > 79 µM (inactive)
N#Cc1c(-c2cccs2)cc(-c2cccnc2)nc1N | > 79 µM (inactive)
Cc1nn2c(-c3cccc(NC(=O)c4ccco4)c3)nnc2c2ccccc12 | > 79 µM (inactive)
Cn1c2c(c(=O)n(C)c1=O)C(c1ccc(Br)cc1)Nc1ccccc1O2 (stereo not drawn) | > 79 µM (inactive)
CC(OC(=O)Cn1[nH]c(=O)c2ccccc2c1=O)C(=O)Nc1ccccc1[N+](=O)[O-] (stereo not drawn) | 27.9 µM
CCOC(=O)C1=c2/c(=C/c3ccncc3)c(N)c(C(=O)OC)n2C(=O)C(c2ccncc2)S1 (stereo not drawn) | > 79 µM (inactive)
Fc1ccc(CSc2ccc3nnc(-c4cccnc4)n3n2)cc1 | 26 µM
COc1ccc2occ(C(=O)c3coc4ccc(O)c(CN(C)C)c34)c2c1 | > 79 µM (inactive)
COC(=O)c1ccccc1S(=O)(=O)N(Cc1ccco1)Cc1cc2cc(OC)ccc2[nH]c1=O | 15.4 µM
COc1ccc(NC(=O)CN(C)C(=O)Cc2n[nH]c(=O)c3ccccc23)cc1 | > 79 µM (inactive)

SMILES | IC50
CNS(=O)(=O)c1cc2c3c(cccc3c1)C(=O)NC2=O | > 79 µM (inactive)
O=C(COc1ccccc1Cl)NNC(=O)Cn1[nH]c(=O)c2ccccc2c1=O | > 79 µM (inactive)
Cc1cc(C)cc(N(CCC#N)C(=O)COC(=O)Cn2[nH]c(=O)c3ccccc3c2=O)c1 | > 79 µM (inactive)
CC(OC(=O)Cc1n[nH]c(=O)c2ccccc12)C(=O)Nc1cccc([N+](=O)[O-])c1 (stereo not drawn) | 44.4 µM (inactive)
COc1ccc(C(=O)NNC(=O)CCc2nc3ccccc3c(=O)[nH]2)cc1 | > 79 µM (inactive)
O=C(CCc1nc2ccccc2c(=O)[nH]1)Nc1nc(-c2cccs2)cs1 | > 79 µM (inactive)
CC(=O)Nc1cccc(NC(=O)c2cc(-c3cccnc3)nc3ccc(Br)cc23)c1 | > 79 µM (inactive)
CCOC(=O)Cc1csc(NC(=O)NC2(C(F)(F)F)Oc3ccccc3O2)n1 | 35.3 µM (inactive)
CC(OC(=O)Cn1[nH]c(=O)c2ccccc2c1=O)C(=O)NC1(C#N)CCCCC1 (stereo not drawn) | > 79 µM (inactive)
CC(C)(C)OC(=O)CNC(=O)c1[nH]cnc1C(=O)Nc1ccc(CNC(=O)OC(C)(C)C)cc1 | > 79 µM (inactive)
COc1ccc(-c2ccc3c(c2)S(=O)(=O)c2cccc(C(=O)N4CCN(c5ccccn5)CC4)c2C3=O)cc1OC | 13.7 µM
COc1ccc(/C=N/NC(=O)c2ccc(COc3cccc4cccnc34)cc2)cc1OC | > 79 µM (inactive)
Cc1cccc(OCCn2c(NC(=O)c3ccco3)nc3ccccc32)c1 | 17.8 µM
CCOc1ccc(CCNC(=O)c2cc3c(C)nccc3[nH]c2=O)cc1OCC | 12.4 µM
O=C(N/N=C/c1cn(-c2ccccc2)nc1-c1cccs1)c1ccccc1F | > 79 µM (inactive)
C=CC[C@@H](CC(=O)N[C@H](CO)Cc1ccccc1)C(=O)N[C@@H](COC(=O)[C@@H](CC=C)CC(=O)OC(C)(C)C)Cc1ccccc1 | 17.5 µM
CCOc1cc(-c2cc(-c3ccc(N)cc3)nc(N)c2C#N)ccc1O | 12.3 µM
COc1ccccc1NC(=O)c1ccc(NC(=O)Cc2n[nH]c(=O)c3ccccc23)cc1 | > 79 µM (inactive)
COC(=O)Sc1nc(N2CCOCC2)c2c(c1C#N)CC(C)(C)OC2 | > 79 µM (inactive)
COc1ccc(NCc2cc3ccccc3[nH]c2=O)cc1 | > 79 µM (inactive)
CC(=O)Nc1cccc(-c2cc(NC(C)=O)c3ncc(-c4cccc(C(C)=O)c4)n3c2)c1 | > 79 µM (inactive)
O=C(/C=C/c1ccc(Cl)c([N+](=O)[O-])c1)Nc1cccnc1 | > 79 µM (inactive)
CCOc1ccc2[nH]c(=O)c(CN(Cc3nnnn3Cc3ccco3)C3CCCCC3)cc2c1 | > 79 µM (inactive)
Cc1c(O)ccc2c3c(c(=O)oc12)CCC(C)C3 (stereo not drawn) | 15.9 µM

SMILES | IC50
O=C(NCc1ccc2c(c1)OCO2)c1n[nH]c(=O)c2ccccc12 | > 79 µM (inactive)
CC(=O)c1ccc(-c2ccc(C(=O)Nc3nc(-c4ccccn4)cs3)o2)cc1 | 44.7 µM (inactive)
CCOC(=O)c1nc(Nc2ccc(C(C)=O)cc2)c2ccccc2n1 | 18.9 µM
O=C(C[C@H]1C/C=C\CC[C@H](Cc2ccc(F)cc2)C(=O)O[C@H](c2ccccc2)CNC1=O)N[C@H](CO)Cc1ccccc1 | > 79 µM (inactive)
CN(CC(=O)Nc1ccccc1Br)C(=O)CCc1nc2ccccc2c(=O)[nH]1 | > 79 µM (inactive)
COCc1c(C(=O)Nc2ccc3nc(N4CCOCC4)sc3c2)oc2ccccc12 | > 79 µM (inactive)
Cn1c(=O)n(CCc2ccccc2)c(=O)c2c1nc1n2CCN1Cc1ccco1 | 21.6 µM
CCOc1ccc2[nH]c(=O)c(CN(CCO)C3(c4nnnn4C4CCCCC4)CCCCC3)cc2c1 | 35.1 µM (inactive)
C/C(=N\NC(=O)c1cccnc1)c1ccc(OC2OCCOC2Oc2ccc(/C(C)=N/NC(=O)c3cccnc3)cc2)cc1 (stereo not drawn) | 13.1 µM
COc1cc(C(=O)Nc2ccc(NC(=O)c3cccc(Cl)c3)nc2)cc(OC)c1OC | 13.8 µM
COc1ccc(-c2cc3nc(-c4ccccc4)cc(N4CCN(C(=O)c5ccoc5)CC4)n3n2)cc1 | 6.39 µM
Cc1[nH]c2ccccc2c1C(=O)CSc1nc2ccccc2[nH]1 | > 79 µM (inactive)
O=C(N/N=C/c1c(O)n(-c2ccccc2Cl)c(=O)c2ccccc12)C1COc2ccccc2O1 (stereo not drawn) | 16.2 µM
CS(=O)(=O)Nc1cccc(NC(=O)c2cccc3c(-c4cccc(C(N)=O)c4)coc23)c1 | > 79 µM (inactive)
Brc1ccc(-c2nn3c(-c4ccccn4)nnc3s2)o1 | 52.8 µM (inactive)
CC(=O)Nc1cccc(NC(=O)c2cc(-c3cccnc3)nc3ccc(Cl)cc23)c1 | > 79 µM (inactive)
COc1ccc(C(CC(=O)N2CCN(c3ccccc3)CC2)c2c(OC)cc(OC)c3ccc(=O)oc23)cc1 (stereo not drawn) | 23.2 µM
O=C(NCC(=O)N(Cc1cccs1)C(C(=O)NC1CCCCC1)c1ccco1)c1ccco1 (stereo not drawn) | 15.5 µM
COc1cccc(/C=N/NC(=O)c2nc(-c3ccccc3)cc(-c3ccccc3)n2)c1 | > 79 µM (inactive)
CC(=O)c1ccc(N2CCN(C(=O)c3cc(-c4cccnc4)nc4ccc(Br)cc34)CC2)cc1 | 11 µM
O=C(Nc1nc2ccccc2n1Cc1ccccc1)c1ccco1 | 14.7 µM
CNC(=O)/C(C#N)=C/c1c(N(Cc2ccccc2)Cc2ccccc2)nc2ccccn2c1=O | 16 µM
COc1ccc(CCNc2nc(-c3cccnc3)nc3ccccc23)cc1OC | > 79 µM (inactive)
Clc1ccccc1-c1nc(N/N=C/c2cccnc2)c2ccccc2n1 | 8.37 µM

SMILES | IC50
COc1cc(NC(=O)c2csc(-c3ccncc3)n2)cc(C(=O)Nc2cccc(C(F)(F)F)c2)c1 | 8.47 µM
O=C(CCCSc1nc2sc3c(c2c(=O)[nH]1)CCC3)NCCO | > 79 µM (inactive)
COc1cc(/C=N/NC(=O)c2ccncc2)ccc1OCC(=O)Nc1ccc(C)c(C)c1 | > 79 µM (inactive)
COC(=O)c1cc(OC)c(OC)cc1NC(=O)c1ccc(OC)c(OC)c1 | > 79 µM (inactive)
CCn1c(O)c(/C=N/N=C2CCCC2)c2ccc(C3=NNC(=O)CC3)cc21 | > 79 µM (inactive)
Cc1c(Cl)cccc1NC(=O)CNC(=O)Cc1n[nH]c(=O)c2ccccc12 | > 79 µM (inactive)
CC(=O)c1ccccc1OCCCN1CCCCC1 | > 79 µM (inactive)
O=C(NN=Cc1cccc([N+](=O)[O-])c1)c1cc(-c2cccnc2)nc2ccccc12 | > 79 µM (inactive)
COc1ccc2cc3cc(C(=O)NCCc4ccc(OC)c(OC)c4)oc3nc2c1 | 7.71 µM
O=C(CSc1nc2ccccc2c(=O)[nH]1)N1CCCCCC1 | > 79 µM (inactive)
Nc1nc(-c2c[nH]c3ccccc23)cs1 | > 79 µM (inactive)
O=C(Nc1cccc(Cl)c1)c1nc[nH]c1C(=O)NCCCCNC(=O)c1[nH]cnc1C(=O)Nc1cccc(Cl)c1 | > 79 µM (inactive)
CCN(CC(=O)Nc1ccc(OC)cc1)C(=O)CCc1nc2ccccc2c(=O)[nH]1 | > 79 µM (inactive)
CC(Oc1cccc(Br)c1)C(=O)NNC(=O)c1ccccn1 (stereo not drawn) | > 79 µM (inactive)
Cc1ccc(CNC(=O)c2oc3ccc(S(=O)(=O)N4CCOCC4)cc3c2C)cc1 | 14.1 µM
COc1ccc(NS(=O)(=O)c2cc(NC(=O)Cc3n[nH]c(=O)c4ccccc34)ccc2OC)cc1 | > 79 µM (inactive)
CCN(CC(=O)Nc1c(F)cccc1F)C(=O)CCc1nc2ccccc2c(=O)[nH]1 | > 79 µM (inactive)
C[C@@H](OC(=O)c1[nH]cnc1C(=O)NCc1ccc(CNC(=O)OC(C)(C)C)cc1)c1ccccc1 | > 79 µM (inactive)
Cc1[nH]c2ccccc2c1/C=N/NC(=O)c1cc(-c2cccs2)[nH]n1 | > 79 µM (inactive)
Cc1cc(NC(=O)c2cccs2)cc(-c2nc3ncccc3o2)c1O | > 79 µM (inactive)
O=C(Nc1cc(=O)c2ccccc2o1)N1CCCCC1 | > 79 µM (inactive)
